Reference: US20080118992A1, “Method For Measuring Molecular Interactions By Laser Light Scattering (Lls)” (UNIVERSITA DEGLI STUDI DI MILANO, priority 2004, published 2008)
Structures can show the parent of a compound that is named as a salt.

Test system: peptide sequence L-Lys-D-Ala-D-Ala (Receptor)
Assay: Determination of the binding constant by Laser Light Scattering (LLS) on receptor-coated polymer particles
Settings: Langmuir fit
Method: […]
After each addition the mixture was stirred for 30 seconds and let balance for 1 minute, and the scattering light intensity was measured by using a 5 milliwatt He—Ne laser and a photomultiplier to convert the scattered light into an electric signal.
The light intensity was recorded for 10 seconds for consecutive six times thus selecting the lowest value in order to minimize the noise due to the possible presence of powder in the sample. […]

## CN[C@H](CC(C)C)C(=O)N[C@H]1C(=O)N[C@@H](CC(N)=O)C(=O)N[C@H]2C(=O)N[C@H]3C(=O)N[C@H](C(=O)N[C@H](C(=O)O)c4cc(O)cc(O)c4-c4cc3ccc4O)[C@H](O)c3ccc(c(Cl)c3)Oc3cc2cc(c3O[C@@H]2O[C@H](CO)[C@@H](O)[C@H](O)[C@H]2O[C@H]2C[C@](C)(N)[C@H](O)[C@H](C)O2)Oc2ccc(cc2Cl)[C@H]1O [Vancomycin, Vancomycin hydrochloride hydrate]
Example 1: particles of average diameter 78 nm, TFE copolymer with 40% by moles perfluoromethylvinylether, 0.4 millimole Vancomycin solution
  binding constant (receptor-ligand): 1.5e+06 mol⁻¹
Example 2: particles of average diameter 40 nm, TFE copolymer with 30% by moles TTD, 0.9 millimolar Vancomycin
  binding constant (receptor-ligand): 1.1e+06 mol⁻¹
